Laboratory results reported in patent US20090035385A1, “COMPOSITIONS INCLUDING IRON” (DRUGTECH CORPORATION, priority 2004, published 2009).
Read-outs that look alike come from different tables or passages of the source.

Assays:
[1] = test system: gastrointestinal iron absorption; details: cited from earlier work
[2] = daily administration, 50 mg of elemental iron; based on generally accepted iron absorption rates
[3] = intravenous administration of the promoter
[4] = oral administration of the promoter

| Compound | effect on gastrointestinal iron absorption [1, 3] | effect on gastrointestinal iron absorption [1, 4] | time required to supply 450 mg of iron for RBC regeneration and 300 mg of iron to replenish iron stores [2] |
| --- | --- | --- | --- |
| O=C1O[C@H]([C@@H](O)CO)C(O)=C1O [Ascorbic acid, ascorbic acid] | not increased | enhance gastrointestinal iron absorption | – |
| O=C(O)CCC(=O)O [Succinic acid, succinic acid] | enhance gastrointestinal iron absorption | enhance gastrointestinal iron absorption | – |
| ferrous sulfate | – | – | approximately 9 months |
